Laboratory results: patent US20090247520A1, “INHIBITORS OF ANTIGEN RECEPTOR-INDUCED NF-kappa B ACTIVATION” (The Burnham Institute for Medical Research, priority 2008, published 2009)
“Also recorded” adds a separate entry of the source.

Columns and labels:
[1] = test system: cIAP2/MALT oncoprotein induced NF-κB activation; test: NF-κB reporter in 293-NF-κB-luciferase cells transfected with cIAP2/MALT; assay type: cell-based; details: CID-2858522 4 μM, IKK inhibitor 10 μM
Protocol: (§1) FIGS. 3 (A-F) HEK293-NF-κB-luc cells were pretreated with CID-2858522 (4 μM), IKK inhibitor, BMS-335541 (10 μM), or PKC inhibitor, Bisindolylmaleimide I (1 μM) for 2 hrs and then transfected with plasmids encoding CD4/TLR4 (A), CD40 (B), NOD1 (C), NOD2 (D), cIAP2-MALT1 (E), or XIAP and TAB (F), or pcDNA as control (compounds were not removed). After 48 hrs, luciferase activity was measured expressing data as fold increase relative to unstimulated cells (mean±SD; n=3). (G-H) HEK293-NF-κB-luc cells were pretreated with CID-2858522 (4 μM), or IKK inhibitor, BMS-335541 (10 μM) for 2 hrs and then cultured with 2 μM doxorubicin (G) or 16 μM retinoic acid (H). After 48 hrs, luciferase activity was measured as above.
Counter Screening and Secondary Assays. To counter-screen for inhibitors of the TNF pathway, HEK293-NFκB-Luc cells were seeded at 10^5 cells per well in 90 μL medium in white 96-well plates (Greiner Bio-One) and cultured overnight, before adding compounds (5 μL in medium) to cells. After 2 h incubation, 5 μL TNF (200 ng/mL) (R&D Systems) was added (final concentration 10 ng/mL) and cells were incubated for 16 h. Luciferase activity was measured using Britelite kit (Perkin Elmer). To counter-screen for inhibitors of NF-κB induced by TLR4, CD40, NOD1, NOD2, cIAP2/MALT, or XIAP/TAB, the 293-NF-κB-luc cells cultured in 96 well plates as above were pretreated with compounds for 2 h and then transfected using Lipofectamine 2000 with various plasmids including pcDNA3 (“empty vector” control) or plasmids encoding CD4-TLR4, CD40, NOD1, NOD2, cIAP2/MALT, XIAP/TAB, using 0.2 μL of transfection reagent containing 100 ng DNA per well. Cells were cultured in medium containing CID-2858522 or other compounds and luciferase activity was measured 48 h later. […] Reactions were then initiated by addition of 50 μL 160 nM ATP (Sigma) in PBS and luciferase activity was measured 2 h later using a luminometer (LJL Biosystems, Sunnyvale, Calif.).

[2] = test system: doxorubicin-induced NF-κB activity; test: NF-κB reporter in HEK293-NF-κB-luc cells stimulated with doxorubicin; assay type: cell-based; details: 2 μM doxorubicin; CID-2858522 4 μM, IKK inhibitor 10 μM
Protocol: as §1
(§2) Counter Screening and Secondary Assays. To counter-screen for inhibitors of the TNF pathway, HEK293-NFκB-Luc cells were seeded at 10^5 cells per well in 90 μL medium in white 96-well plates (Greiner Bio-One) and cultured overnight, before adding compounds (5 μL in medium) to cells. […] Luciferase activity was measured using Britelite kit (Perkin Elmer). […] Cells were cultured in medium containing CID-2858522 or other compounds and luciferase activity was measured 48 h later. […] Reactions were then initiated by addition of 50 μL 160 nM ATP (Sigma) in PBS and luciferase activity was measured 2 h later using a luminometer (LJL Biosystems, Sunnyvale, Calif.).

[3] = test system: CD4-TLR4 induced NF-κB reporter gene activity; test: NF-κB reporter in HEK293-NF-κB-luc cells transfected with CD4-TLR4; assay type: cell-based; details: CID-2858522 4 μM, IKK inhibitor 10 μM, PKC inhibitor 1 μM
Protocol: as §1, §2

[4] = test system: NOD2 (NLRC2) induced NF-κB-luciferase reporter gene activity; test: NF-κB reporter in HEK293-NF-κB-luc cells over-expressing NOD2; assay type: cell-based; details: CID-2858522 4 μM, IKK inhibitor 10 μM
Protocol: as §1, §2

[5] = test system: NOD1 (NLRC1) induced NF-κB-luciferase reporter gene activity; test: NF-κB reporter in HEK293-NF-κB-luc cells over-expressing NOD1; assay type: cell-based; details: CID-2858522 4 μM, IKK inhibitor 10 μM
Protocol: as §1, §2

[6] = biological target: T1, PKC-beta (Homo sapiens, UniProt P05771); test: In vitro kinase assay PKC-beta (HTScan kit); assay type: biochemical; details: CID-2858522 up to 8 μM; STS 0.5 μM; PKC inhibitor 1 μM
T1 construct: purchased Cell Signaling, Danvers, Mass
Protocol: (§3) CID-2858522 (8 μM) were tested in in vitro IKK beta (A), PKC beta […] or PKC theta (C) kinase assays using kits. STS (0.5 μM), IKK inhibitor (10 μM) and PKC inhibitor (1 μM) were used as positive controls.
(§4) In Vitro Kinase Assays. PKC-beta, PKC-theta and IKK-beta in vitro kinase assays were performed using the HTScan Kinase Assay Kit (Cell Signaling, Danvers, Mass.) according to manufacturer's protocols. A panel of >300 kinases was screened by Ambit, Inc.

[7] = test system: TRAF1 induction; test: TRAF1 expression in anti-IgM-stimulated CLL B-cells (immunoblot); assay type: cell-based, human; details: 24 hr after stimulation
Protocol: (A) Isolated mouse primary splenocytes were cultured with anti-CD3/anti-CD28 (0.3 μg/mL each) or anti-IgM (3 μg/mL) for 48 h, then 1 μCi 3H-Thymidine was added for 12 h and incorporation into DNA was measured, expressing data as fold increase above unstimulated cells (mean±SD; n=3). (B-D) Primary splenocytes were pretreated for 2 h with IKK inhibitor, BMS-335541 (B), PKC inhibitor, Bisindolylmaleimide I (C) or CID-2858522 (D), then stimulated with anti-CD3/anti-CD28 (0.3 μg/mL) or anti-IgM (3 μg/mL) for 48 h. 1 μCi 3H-Thymidine was added for 12 h and incorporation into DNA was measured, expressing data as percent inhibition relative to control cells treated with DMSO (mean±SD; n=3). […] Levels of TRAF1 and β-actin were assessed by immunoblotting, quantified by densitometry and TRAF1 results reported relative to control cells, after normalization for β-actin (mean±SD). […] Then nuclear extracts were prepared and p65-DNA-binding activity was measured (mean±SD; n=3).
Chronic Lymphocytic Leukemia (CLL) cell culture. Peripheral blood mononuclear cells from CLL patients were obtained under IRB approval from whole blood by Ficoll density gradient centrifugation and cultured with RPMI 1640 Medium supplemented with 10% FBS and antibiotics.

[8] = biological target: T2, PKC-theta (Homo sapiens, UniProt Q04759); test: In vitro kinase assay PKC-theta (HTScan kit); assay type: biochemical; details: CID-2858522 up to 8 μM; STS 0.5 μM; PKC inhibitor 1 μM
T2 construct: purchased Cell Signaling, Danvers, Mass
Protocol: as §3, §4

T1 sequence (P05771 whole entry): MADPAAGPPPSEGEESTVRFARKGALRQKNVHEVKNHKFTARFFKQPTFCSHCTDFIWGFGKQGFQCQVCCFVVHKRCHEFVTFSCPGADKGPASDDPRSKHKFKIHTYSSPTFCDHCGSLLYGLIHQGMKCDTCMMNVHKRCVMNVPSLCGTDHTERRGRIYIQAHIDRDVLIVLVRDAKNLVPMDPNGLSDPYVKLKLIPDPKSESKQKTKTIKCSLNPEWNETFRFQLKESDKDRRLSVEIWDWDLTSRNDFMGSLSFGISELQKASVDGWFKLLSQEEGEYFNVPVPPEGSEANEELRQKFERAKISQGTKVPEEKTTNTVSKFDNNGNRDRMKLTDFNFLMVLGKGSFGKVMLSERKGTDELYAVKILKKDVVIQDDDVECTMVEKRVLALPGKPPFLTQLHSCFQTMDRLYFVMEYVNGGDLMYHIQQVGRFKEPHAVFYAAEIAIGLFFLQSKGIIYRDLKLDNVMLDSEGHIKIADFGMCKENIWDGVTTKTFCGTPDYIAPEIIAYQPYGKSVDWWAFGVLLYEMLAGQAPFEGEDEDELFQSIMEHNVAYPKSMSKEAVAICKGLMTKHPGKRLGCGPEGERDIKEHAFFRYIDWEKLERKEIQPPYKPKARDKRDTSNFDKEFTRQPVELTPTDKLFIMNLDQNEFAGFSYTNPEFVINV
T2 sequence (Q04759 whole entry): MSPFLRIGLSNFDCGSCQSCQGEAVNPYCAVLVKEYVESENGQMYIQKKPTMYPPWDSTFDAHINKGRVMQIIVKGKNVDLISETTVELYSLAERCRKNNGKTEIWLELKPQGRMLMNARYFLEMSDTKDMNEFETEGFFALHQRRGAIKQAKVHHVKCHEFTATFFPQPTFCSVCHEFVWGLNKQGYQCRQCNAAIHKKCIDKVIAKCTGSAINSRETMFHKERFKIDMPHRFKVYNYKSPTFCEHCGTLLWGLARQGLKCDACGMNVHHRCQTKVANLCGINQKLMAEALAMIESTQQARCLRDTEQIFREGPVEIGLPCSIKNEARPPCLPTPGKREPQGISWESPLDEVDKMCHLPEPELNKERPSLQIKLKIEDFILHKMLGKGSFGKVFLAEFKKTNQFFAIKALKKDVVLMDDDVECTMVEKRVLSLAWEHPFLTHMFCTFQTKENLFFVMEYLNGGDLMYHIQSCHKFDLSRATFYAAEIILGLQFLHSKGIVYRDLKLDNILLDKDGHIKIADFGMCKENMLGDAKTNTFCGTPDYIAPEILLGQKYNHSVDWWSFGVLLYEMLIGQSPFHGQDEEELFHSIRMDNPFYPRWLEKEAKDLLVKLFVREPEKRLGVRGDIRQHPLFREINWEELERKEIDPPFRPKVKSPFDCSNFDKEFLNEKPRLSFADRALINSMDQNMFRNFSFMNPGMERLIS

## Cc1ccc2nc(NCCN)c3ncc(C)n3c2c1 [BMS-345541, reference compound]
[1]
  suppression of cIAP2/MALT-driven NF-κB activation: effectively suppressed
[2]
  suppression of doxorubicin-induced NF-κB activity: suppressed
[3]
  suppression of TLR4 (CD4-TLR4) induced NF-κB reporter: suppressed
[4]
  inhibition of NOD2-induced NF-κB reporter: inhibited
[5]
  inhibition of NOD1-induced NF-κB reporter: inhibited

## CN(C)CCCn1cc(C2=C(c3c[nH]c4ccccc34)C(=O)NC2=O)c2ccccc21 [Bisindolylmaleimide I, reference compound]
[6]
  inhibition of PKC-beta kinase activity: potent inhibition
[7]
  inhibition of anti-IgM-stimulated TRAF1 expression: also inhibited
[8]
  inhibition of PKC-theta kinase activity: potent inhibition

## Cc1cc2nc(NCCCO)n(CC(=O)c3cc(C(C)(C)C)c(O)c(C(C)(C)C)c3)c2cc1C [Compound 1, 2-(2-(3-Hydroxypropylamino)-5,6-dimethyl-1H-benzo[d]imidazol-1-yl)-1-(3,5-di-tert-butyl-4-hydroxyphenyl)ethanone]
[1]
  suppression of cIAP2/MALT-driven NF-κB activation: did not inhibit
[1]; listed as CID-288522
  suppression of cIAP2/MALT-driven NF-κB activation: did not
[6]
  inhibition of PKC-beta kinase activity: failed to suppress
[2]
  suppression of doxorubicin-induced NF-κB activity: did not inhibit
[3]
  suppression of TLR4 (CD4-TLR4) induced NF-κB reporter: did not inhibit; also recorded: not by CID-2858522
[4]
  inhibition of NOD2-induced NF-κB reporter: did not inhibit
[5]
  inhibition of NOD1-induced NF-κB reporter: did not inhibit; also recorded: not by CID-2858522
[7]
  inhibition of anti-IgM-stimulated TRAF1 expression: inhibited
[8]
  inhibition of PKC-theta kinase activity: failed to suppress
